The record followed here is the OligoGym collection.

Oligonucleotides are written 5' to 3', each unit as a sugar letter and its base; * is a phosphorothioate linkage, no mark a phosphodiester; rarer units and linkages stand in square brackets, end groups in braces. Plain capitals give the bases only. Oligonucleotides are given in HELM: sugar(base)linkage, 5' to 3'; d 2'-deoxyribose, r ribose, m 2'-O-methylribose, p phosphate. ss, as = sense and antisense strand; d = 2'-deoxy (DNA); r = 2'-OH (RNA)
Note: test concentration or dose not given here.

One series deals with SOST. In words: reporter assay of Huesken 2005. The conditions noted are these: siRNA. On the technique in general: Reporter assays use an easily measured gene product as a stand-in for the process of interest.
Substance “RNA1{r(G)p.r(C)p.r(G)p.r(C)p.r(G)p.r(C)p.r(A)p.r(A)p.r(G)p.r(G)p.r(U)p.r(G)p.r(C)p.r(G)p.r(C)p.r(C)p.r(U)p.r(G)p.r(G)p.d(T)p.d(T)}|RNA2{r(C)p.r(C)p.r(A)p.r(G)p.r(G)p.r(C)p.r(G)p.r(C)p.r(A)p.r(C)p.r(C)p.r(U)p.r(U)p.r(G)p.r(C)p.r(G)p.r(C)p.r(G)p.r(C)p.d(G)p.d(C)}$$$RNA1{StrandType:ss}|RNA2{StrandType:as}$” registered a normalised inhibition (eCFP-eYFP dual reporter) of 41.3%.

As to “RNA1{r(C)p.r(C)p.r(G)p.r(A)p.r(U)p.r(G)p.r(G)p.r(G)p.r(C)p.r(C)p.r(G)p.r(U)p.r(G)p.r(C)p.r(C)p.r(G)p.r(C)p.r(A)p.r(G)p.d(T)p.d(T)}|RNA2{r(C)p.r(U)p.r(G)p.r(C)p.r(G)p.r(G)p.r(C)p.r(A)p.r(C)p.r(G)p.r(G)p.r(C)p.r(C)p.r(C)p.r(A)p.r(U)p.r(C)p.r(G)p.r(G)p.d(T)p.d(C)}$$$RNA1{StrandType:ss}|RNA2{StrandType:as}$”, the normalised inhibition (eCFP-eYFP dual reporter) turned out to be 54.3%. Still for that read-out and setting: in the case of “RNA1{r(C)p.r(G)p.r(G)p.r(C)p.r(G)p.r(C)p.r(G)p.r(C)p.r(C)p.r(U)p.r(G)p.r(C)p.r(U)p.r(G)p.r(C)p.r(C)p.r(C)p.r(A)p.r(A)p.d(T)p.d(T)}|RNA2{r(U)p.r(U)p.r(G)p.r(G)p.r(G)p.r(C)p.r(A)p.r(G)p.r(C)p.r(A)p.r(G)p.r(G)p.r(C)p.r(G)p.r(C)p.r(G)p.r(C)p.r(C)p.r(G)p.d(G)p.d(G)}$$$RNA1{StrandType:ss}|RNA2{StrandType:as}$” it was 84.6%. Still for that read-out and setting: as for “RNA1{r(C)p.r(A)p.r(U)p.r(C)p.r(C)p.r(C)p.r(C)p.r(G)p.r(A)p.r(G)p.r(C)p.r(U)p.r(C)p.r(G)p.r(G)p.r(A)p.r(G)p.r(A)p.r(G)p.d(T)p.d(T)}|RNA2{r(C)p.r(U)p.r(C)p.r(U)p.r(C)p.r(C)p.r(G)p.r(A)p.r(G)p.r(C)p.r(U)p.r(C)p.r(G)p.r(G)p.r(G)p.r(G)p.r(A)p.r(U)p.r(G)p.d(A)p.d(T)}$$$RNA1{StrandType:ss}|RNA2{StrandType:as}$”, the figure is 50.9%; as for “RNA1{r(G)p.r(A)p.r(C)p.r(G)p.r(U)p.r(G)p.r(U)p.r(C)p.r(C)p.r(G)p.r(A)p.r(G)p.r(U)p.r(A)p.r(C)p.r(A)p.r(G)p.r(C)p.r(U)p.d(T)p.d(T)}|RNA2{r(A)p.r(G)p.r(C)p.r(U)p.r(G)p.r(U)p.r(A)p.r(C)p.r(U)p.r(C)p.r(G)p.r(G)p.r(A)p.r(C)p.r(A)p.r(C)p.r(G)p.r(U)p.r(C)p.d(T)p.d(T)}$$$RNA1{StrandType:ss}|RNA2{StrandType:as}$”, 75.8%.

With “RNA1{r(C)p.r(U)p.r(G)p.r(G)p.r(U)p.r(G)p.r(G)p.r(C)p.r(C)p.r(U)p.r(C)p.r(G)p.r(U)p.r(G)p.r(C)p.r(A)p.r(A)p.r(G)p.r(U)p.d(T)p.d(T)}|RNA2{r(A)p.r(C)p.r(U)p.r(U)p.r(G)p.r(C)p.r(A)p.r(C)p.r(G)p.r(A)p.r(G)p.r(G)p.r(C)p.r(C)p.r(A)p.r(C)p.r(C)p.r(A)p.r(G)p.d(G)p.d(C)}$$$RNA1{StrandType:ss}|RNA2{StrandType:as}$”, the normalised inhibition (eCFP-eYFP dual reporter) was determined as 52.5%. On the same count and under the same terms, in the case of “RNA1{r(G)p.r(C)p.r(U)p.r(A)p.r(C)p.r(C)p.r(G)p.r(C)p.r(G)p.r(C)p.r(G)p.r(C)p.r(A)p.r(G)p.r(C)p.r(G)p.r(C)p.r(G)p.r(U)p.d(T)p.d(T)}|RNA2{r(A)p.r(C)p.r(G)p.r(C)p.r(G)p.r(C)p.r(U)p.r(G)p.r(C)p.r(G)p.r(C)p.r(G)p.r(C)p.r(G)p.r(G)p.r(U)p.r(A)p.r(G)p.r(C)p.d(G)p.d(G)}$$$RNA1{StrandType:ss}|RNA2{StrandType:as}$” it was 51.8%.

A further series concerns the target UBE2M. Put plainly: reporter assay of Huesken 2005. The conditions noted are these: siRNA.
“sense rCrUrGrCrArGrArArCrArArCrCrGrGrCrGrGrCdTdT / antisense rGrCrCrGrCrCrGrGrUrUrGrUrUrCrUrGrCrArGdGdA” showed a normalised inhibition (eCFP-eYFP dual reporter) of 64.1%. In turn, “sense rGrGrUrGrArArGrUrGrUrGrArGrArCrArArUrGdTdT / antisense rCrArUrUrGrUrCrUrCrArCrArCrUrUrCrArCrCdTdT” registered a normalised inhibition (eCFP-eYFP dual reporter) of 81.7%. Still for that read-out and setting: in the case of “sense rCrUrGrArArCrArArGrGrArGrGrCrCrGrCrArGdTdT / antisense rCrUrGrCrGrGrCrCrUrCrCrUrUrGrUrUrCrArGdTdG” it was 68.6%. Still for that read-out and setting: in the case of “sense rCrUrUrCrUrArCrArArGrArGrUrGrGrGrArArGdTdT / antisense rCrUrUrCrCrCrArCrUrCrUrUrGrUrArGrArArGdCdC” it was 75.9%. Same read-out and setting: in the case of “sense rGrArGrGrArGrUrCrGrGrCrGrGrGrCrGrGrCrAdTdT / antisense rUrGrCrCrGrCrCrCrGrCrCrGrArCrUrCrCrUrCdCdT” it was 59.9%; in that of “sense rArUrCrCrArGrArArGrGrArCrArUrArArArCrGdTdT / antisense rCrGrUrUrUrArUrGrUrCrCrUrUrCrUrGrGrArUdCdC”, 56.4%. As to “sense rArGrArArCrArArCrCrGrGrCrGrGrCrUrGrUrUdTdT / antisense rArArCrArGrCrCrGrCrCrGrGrUrUrGrUrUrCrUdGdC”, the normalised inhibition (eCFP-eYFP dual reporter) amounted to 61.2%. For “sense rArGrGrCrGrUrCrGrGrCrGrGrCrGrCrArGrCrUdTdT / antisense rArGrCrUrGrCrGrCrCrGrCrCrGrArCrGrCrCrUdTdC”, the normalised inhibition (eCFP-eYFP dual reporter) is 51.7%. Still for that read-out and setting: as for “sense rCrUrUrCrUrUrGrGrArGrCrCrCrArArCrCrCrCdTdT / antisense rGrGrGrGrUrUrGrGrGrCrUrCrCrArArGrArArGdAdG”, the figure is 61.3%; as for “sense rArGrGrArGrGrArGrGrArGrUrCrGrGrCrGrGrGdTdT / antisense rCrCrCrGrCrCrGrArCrUrCrCrUrCrCrUrCrCrUdTdC”, 41.7%; as for “sense rArUrCrUrCrUrUrCrUrUrGrGrArGrCrCrCrArAdTdT / antisense rUrUrGrGrGrCrUrCrCrArArGrArArGrArGrArUdAdC”, 77.1%.

In the case of “sense rUrArArUrUrUrArUrGrGrCrCrUrGrCrArGrUrAdTdT / antisense rUrArCrUrGrCrArGrGrCrCrArUrArArArUrUrAdTdG”, the normalised inhibition (eCFP-eYFP dual reporter) amounted to 67%. As to “sense rArCrGrArUrArArArCrUrCrCrArUrArArUrUrUdTdT / antisense rArArArUrUrArUrGrGrArGrUrUrUrArUrCrGrUdAdA”, the normalised inhibition (eCFP-eYFP dual reporter) worked out at 82.2%. Same read-out and setting: in the case of “sense rCrUrArCrArArGrArGrUrGrGrGrArArGrUrUrUdTdT / antisense rArArArCrUrUrCrCrCrArCrUrCrUrUrGrUrArGdAdA” it was 87.3%; in that of “sense rArArCrUrCrCrArUrArArUrUrUrArUrGrGrCrCdTdT / antisense rGrGrCrCrArUrArArArUrUrArUrGrGrArGrUrUdTdA”, 49.7%; in that of “sense rGrGrGrUrGrGrCrUrArCrArUrCrGrGrCrUrCrCdTdT / antisense rGrGrArGrCrCrGrArUrGrUrArGrCrCrArCrCrCdCdG”, 58.1%. The same measure, in the same setting: in the case of “sense rCrCrUrGrArUrGrArGrGrGrCrUrUrCrUrArCrAdTdT / antisense rUrGrUrArGrArArGrCrCrCrUrCrArUrCrArGrGdAdC” it was 77.9%; in that of “sense rGrGrArCrCrCrArCrUrGrArArCrArArGrGrArGdTdT / antisense rCrUrCrCrUrUrGrUrUrCrArGrUrGrGrGrUrCrCdTdC”, 63.1%; in that of “sense rGrCrArGrCrArGrCrArArGrArArGrGrCrGrUrCdTdT / antisense rGrArCrGrCrCrUrUrCrUrUrGrCrUrGrCrUrGrCdCdC”, 61%. “sense rArGrGrCrCrGrCrArGrArGrGrUrCrCrUrGrCrAdTdT / antisense rUrGrCrArGrGrArCrCrUrCrUrGrCrGrGrCrCrUdCdC” registered a normalised inhibition (eCFP-eYFP dual reporter) of 65.4%. On the same count and under the same terms, as for “sense rArArGrArGrUrGrGrGrArArGrUrUrUrGrUrGrUdTdT / antisense rArCrArCrArArArCrUrUrCrCrCrArCrUrCrUrUdGdT”, the figure is 85.1%; as for “sense rUrCrUrUrCrUrUrGrGrArGrCrCrCrArArCrCrCdTdT / antisense rGrGrGrUrUrGrGrGrCrUrCrCrArArGrArArGrAdGdA”, 56.1%. For “sense rGrUrCrArUrCrUrGrUrCrCrUrGrArUrGrArGrGdTdT / antisense rCrCrUrCrArUrCrArGrGrArCrArGrArUrGrArCdCdA”, the normalised inhibition (eCFP-eYFP dual reporter) came out at 58.9%. The substance “sense rGrGrCrGrGrCrUrGrUrUrUrGrArGrCrArGrArAdTdT / antisense rUrUrCrUrGrCrUrCrArArArCrArGrCrCrGrCrCdGdG” returned a normalised inhibition (eCFP-eYFP dual reporter) of 76.6%.

In turn, “sense rGrArUrArUrCrArGrCrUrUrCrUrCrArGrArUrCdTdT / antisense rGrArUrCrUrGrArGrArArGrCrUrGrArUrArUrCdAdC” registered a normalised inhibition (eCFP-eYFP dual reporter) of 60.5%.

Consider “sense rGrGrCrGrGrCrGrCrArGrCrUrGrCrGrGrArUrCdTdT / antisense rGrArUrCrCrGrCrArGrCrUrGrCrGrCrCrGrCrCdGdA”, for which the normalised inhibition (eCFP-eYFP dual reporter) came to 71.7%. As to “sense rCrArArUrGrGrUrCrUrArUrCrArCrCrCrCrArAdTdT / antisense rUrUrGrGrGrGrUrGrArUrArGrArCrCrArUrUrGdTdC”, the normalised inhibition (eCFP-eYFP dual reporter) worked out at 86.1%. The substance “sense rCrGrGrGrGrUrGrGrCrUrArCrArUrCrGrGrCrUdTdT / antisense rArGrCrCrGrArUrGrUrArGrCrCrArCrCrCrCrGdCdA” displayed a normalised inhibition (eCFP-eYFP dual reporter) of 54.3%. Consider “sense rUrCrArUrCrUrGrUrCrCrUrGrArUrGrArGrGrGdTdT / antisense rCrCrCrUrCrArUrCrArGrGrArCrArGrArUrGrAdCdC”, for which the normalised inhibition (eCFP-eYFP dual reporter) worked out at 57.5%. Same read-out and setting: in the case of “sense rCrGrArGrCrUrGrArArCrCrUrGrCrCrCrArArGdTdT / antisense rCrUrUrGrGrGrCrArGrGrUrUrCrArGrCrUrCrGdTdT” it was 71.9%; in that of “sense rGrGrGrCrCrArGrGrGrUrUrArCrCrCrGrCrArUdTdT / antisense rArUrGrCrGrGrGrUrArArCrCrCrUrGrGrCrCrCdAdC”, 79.3%.
